Results published in ChEMBL document CHEMBL1149774, “Synthesis of N-(5,7-diamino-3-phenyl-quinoxalin-2-yl)-3,4,5-substituted anilines and N-[4[(5,7-diamino-3-phenylquinoxalin-2-yl)amino]benzoyl]-l-glutamic acid diethyl ester: evaluation of in vitro anti-cancer and anti-folate activities” (Eur J Med Chem, 2008).

How the values were obtained:
Type in all cases: functional
HOP-62 = assay: Growth inhibition of human HOP62 cells after 48 hrs by SRB staining method; conditions: HOP-62, 48 h
TK-10 = assay: Growth inhibition of human TK10 cells after 48 hrs by SRB staining method; conditions: TK-10, 48 h
NCI-H460 = assay: Growth inhibition of human NCI-H460 cells after 48 hrs by SRB staining method; conditions: NCI-H460, 48 h
NCI-H522 = assay: Growth inhibition of human NCI-H522 cells after 48 hrs by SRB staining method; conditions: NCI-H522, 48 h
EKVX = assay: Growth inhibition of human EKVX cells after 48 hrs by SRB staining method
SR = assay: Growth inhibition of human SR cells after 48 hrs by SRB staining method
OVCAR-5 = assay: Growth inhibition of human OVCAR5 cells after 48 hrs by SRB staining method; conditions: OVCAR-5, 48 h
HCT-116 = assay: Growth inhibition of human HCT116 cells after 48 hrs by SRB staining method; conditions: HCT-116, 48 h
SW-620 = assay: Growth inhibition of human SW620 cells after 48 hrs by SRB staining method; conditions: SW-620, 48 h
T47D = assay: Growth inhibition of human T47D cells after 48 hrs by SRB staining method
M14 = assay: Growth inhibition of human M14 cells after 48 hrs by SRB staining method; conditions: M14, 48 h
U-251 = assay: Growth inhibition of human U251 cells after 48 hrs by SRB staining method; conditions: U-251, 48 h
A498 = assay: Growth inhibition of human A498 cells after 48 hrs by SRB staining method; conditions: A498, 48 h
SK-OV-3 = assay: Growth inhibition of human SKOV3 cells after 48 hrs by SRB staining method; conditions: SK-OV-3, 48 h
HCT-15 = assay: Growth inhibition of human HCT15 cells after 48 hrs by SRB staining method; conditions: HCT-15, 48 h
SF-295 = assay: Growth inhibition of human SF295 cells after 48 hrs by SRB staining method; conditions: SF-295, 48 h
NCI-H322M = assay: Growth inhibition of human NCI-H322M cells after 48 hrs by SRB staining method
MCF7 = assay: Growth inhibition of human MCF7 cells after 48 hrs by SRB staining method; conditions: MCF7, 48 h
SK-MEL-28 = assay: Growth inhibition of human SK-MEL-28 cells after 48 hrs by SRB staining method; conditions: SK-MEL-28, 48 h
Malme-3M = assay: Growth inhibition of human MALME-3M cells after 48 hrs by SRB staining method
SK-MEL-5 = assay: Growth inhibition of human SK-MEL-5 cells after 48 hrs by SRB staining method; conditions: SK-MEL-5, 48 h
MDA-MB-435 = assay: Growth inhibition of human MDA-MB-435 cells after 48 hrs by SRB staining method; conditions: MDA-MB-435, 48 h
RXF 393 = assay: Growth inhibition of human RXF393 cells after 48 hrs by SRB staining method; conditions: RXF 393, 48 h
OVCAR-3 = assay: Growth inhibition of human OVCAR-3 cells after 48 hrs by SRB staining method; conditions: OVCAR-3, 48 h
NCI-H226 = assay: Growth inhibition of human NCI-H226 cells after 48 hrs by SRB staining method; conditions: NCI-H226, 48 h
UO-31 = assay: Growth inhibition of human UO31 cells after 48 hrs by SRB staining method; conditions: UO-31, 48 h
UACC-257 = assay: Growth inhibition of human UACC257 cells after 48 hrs by SRB staining method; conditions: UACC-257, 48 h
CAKI-1 = assay: Growth inhibition of human CAKI1 cells after 48 hrs by SRB staining method; conditions: CAKI-1, 48 h
786-0 = assay: Growth inhibition of human 786-0 cells after 48 hrs by SRB staining method; conditions: 786-0, 48 h
DU-145 = assay: Growth inhibition of human DU145 cells after 48 hrs by SRB staining method; conditions: DU-145, 48 h
COLO 205 = assay: Growth inhibition of human COLO205 cells after 48 hrs by SRB staining method; conditions: COLO 205, 48 h
OVCAR-4 = assay: Growth inhibition of human OVCAR4 cells after 48 hrs by SRB staining method; conditions: OVCAR-4, 48 h
[1] = read-out: pLC50 (the source's name) (converted)

COc1ccc(Nc2nc3cc(N)cc(N)c3nc2-c2ccccc2)cc1OC
GI50 (HOP-62): 34.7 µM | LC50 (HOP-62): > 100 µM | TGI (HOP-62; read-out: pTGI (converted)): > 100 µM | GI50 (TK-10): 20.9 µM | CC50 (TK-10; [1]): > 100 µM | TGI (TK-10; read-out: pTGI (converted)): 58.9 µM | GI50 (NCI-H460): 20.4 µM | LC50 (concentration killing 50% of cells) (NCI-H460): > 100 µM | TGI (NCI-H460; read-out: pTGI (converted)): > 100 µM | GI50 (NCI-H522): 28.8 µM | LC50 (NCI-H522): > 100 µM | TGI (NCI-H522; read-out: pTGI (converted)): > 100 µM | GI50 (EKVX): 25.7 µM | CC50 (EKVX; [1]): > 100 µM | TGI (EKVX; read-out: pTGI (converted)): 70.8 µM | GI50 (SR): 2.69 µM | CC50 (SR; [1]): > 100 µM | TGI (SR; read-out: pTGI (converted)): 21.9 µM | GI50 (OVCAR-5): 29.5 µM | LC50 (OVCAR-5): > 100 µM | TGI (OVCAR-5; read-out: pTGI (converted)): 72.4 µM | GI50 (HCT-116): 14.8 µM | LC50 (HCT-116): 58.9 µM | TGI (HCT-116; read-out: pTGI (converted)): 29.5 µM | GI50 (SW-620): 15.5 µM | CC50 (SW-620; [1]): 83.2 µM | TGI (SW-620; read-out: pTGI (converted)): 36.3 µM | GI50 (T47D): 14.5 µM | CC50 (T47D; [1]): > 100 µM | TGI (T47D; read-out: pTGI (converted)): 38 µM | GI50 (M14): 20.9 µM | LC50 (M14): > 100 µM | TGI (M14; read-out: pTGI (converted)): 69.2 µM | GI50 (U-251): 25.7 µM | LC50 (50% lethal concentration) (U-251): > 100 µM | TGI (U-251; read-out: pTGI (converted)): > 100 µM | GI50 (A498): 11.7 µM | CC50 (A498; [1]): > 100 µM | TGI (A498; read-out: pTGI (converted)): 56.2 µM | GI50 (SK-OV-3): 38 µM | CC50 (SK-OV-3; [1]): > 100 µM | TGI (SK-OV-3; read-out: pTGI (converted)): 87.1 µM | GI50 (HCT-15): 28.8 µM | LC50 (HCT-15): > 100 µM | TGI (HCT-15; read-out: pTGI (converted)): > 100 µM | GI50 (SF-295): 17 µM | LC50 (SF-295): > 100 µM | TGI (SF-295; read-out: pTGI (converted)): 45.7 µM | GI50 (NCI-H322M): > 100 µM | LC50 (NCI-H322M): > 100 µM | TGI (NCI-H322M; read-out: pTGI (converted)): 25.1 µM | GI50 (MCF7): 20.4 µM | CC50 (MCF7; [1]): 97.7 µM | TGI (MCF7; read-out: pTGI (converted)): 44.7 µM | GI50 (SK-MEL-28): 21.4 µM | CC50 (SK-MEL-28; [1]): > 100 µM | TGI (SK-MEL-28; read-out: pTGI (converted)): 50.1 µM | GI50 (Malme-3M): 15.8 µM | LC50 (Malme-3M): 81.3 µM | TGI (Malme-3M; read-out: pTGI (converted)): 35.5 µM | GI50 (SK-MEL-5): 12.3 µM | LC50 (SK-MEL-5): 53.7 µM | TGI (SK-MEL-5; read-out: pTGI (converted)): 25.7 µM | GI50 (MDA-MB-435): 16.2 µM | CC50 (MDA-MB-435; [1]): 63.1 µM | TGI (MDA-MB-435; read-out: pTGI (converted)): 32.4 µM | GI50 (RXF 393): 8.13 µM | CC50 (RXF 393; [1]): > 100 µM | TGI (RXF 393; read-out: pTGI (converted)): 49 µM | GI50 (OVCAR-3): 30.2 µM | LC50 (OVCAR-3): > 100 µM | TGI (OVCAR-3; read-out: pTGI (converted)): > 100 µM | GI50 (NCI-H226): 18.6 µM | LC50 (NCI-H226): > 100 µM | TGI (NCI-H226; read-out: pTGI (converted)): 57.5 µM | GI50 (UO-31): 28.2 µM | CC50 (UO-31; [1]): > 100 µM | TGI (UO-31; read-out: pTGI (converted)): > 100 µM | GI50 (UACC-257): 35.5 µM | LC50 (UACC-257): > 100 µM | TGI (UACC-257; read-out: pTGI (converted)): > 100 µM | GI50 (CAKI-1): 18.2 µM | CC50 (CAKI-1; [1]): > 100 µM | TGI (CAKI-1; read-out: pTGI (converted)): 66.1 µM | GI50 (786-0): 24 µM | CC50 (786-0; [1]): > 100 µM | TGI (786-0; read-out: pTGI (converted)): 91.2 µM | GI50 (DU-145): 44.7 µM | CC50 (DU-145; [1]): > 100 µM | TGI (DU-145; read-out: pTGI (converted)): > 100 µM | GI50 (COLO 205): 20 µM | LC50 (COLO 205): 85.1 µM | TGI (COLO 205; read-out: pTGI (converted)): 40.7 µM | GI50 (OVCAR-4): 18.6 µM | LC50 (OVCAR-4): > 100 µM | TGI (OVCAR-4; read-out: pTGI (converted)): 52.5 µM
